The results in this text go back to patent publication US12252524B2, “GIP/GLP1 co-agonist compounds” (Eli Lilly and Company, priority 2018, dated 2025).

Numbered stars: 1 amine (or outer) side, 2 acyl side, 3 side chain; on linkers, the order of the positions; unused ones are H or OH. Square brackets hold non-standard residues; d marks the D form. Side chains are listed from the residue outwards. Peptide text beside a SMILES is read from it. * marks the point of attachment. C20 diacid = O=C(O)CCCCCCCCCCCCCCCCCCC(=O)*; γGlu = O=C(O)[C@H](CCC(=O)[*:2])N[*:1]; αMeY = C[C@](N)(Cc1ccc(O)cc1)C(=O)O; αMeL = CC(C)C[C@](C)(N)C(=O)O; Orn = NCCC[C@H](N)C(=O)O; AEEA = NCCOCCOCC(=O)O; Aib = CC(C)(N)C(=O)O

The target of test [1] is human GLP-1 receptor (GLP-1R) (Homo sapiens, UniProt P43220). The experiment in a line: cAMP pharmacological functional assay in presence of casein, hGLP-1R. Format: cell-based. The following applies: HEK293 cells expressing hGLP-1R, 0.1% Casein, geometric mean; read-out: hGLP1R cAMP Rel EC50 nM (SEM, n).
Chain of human GLP-1 receptor (GLP-1R) (P43220 24-463): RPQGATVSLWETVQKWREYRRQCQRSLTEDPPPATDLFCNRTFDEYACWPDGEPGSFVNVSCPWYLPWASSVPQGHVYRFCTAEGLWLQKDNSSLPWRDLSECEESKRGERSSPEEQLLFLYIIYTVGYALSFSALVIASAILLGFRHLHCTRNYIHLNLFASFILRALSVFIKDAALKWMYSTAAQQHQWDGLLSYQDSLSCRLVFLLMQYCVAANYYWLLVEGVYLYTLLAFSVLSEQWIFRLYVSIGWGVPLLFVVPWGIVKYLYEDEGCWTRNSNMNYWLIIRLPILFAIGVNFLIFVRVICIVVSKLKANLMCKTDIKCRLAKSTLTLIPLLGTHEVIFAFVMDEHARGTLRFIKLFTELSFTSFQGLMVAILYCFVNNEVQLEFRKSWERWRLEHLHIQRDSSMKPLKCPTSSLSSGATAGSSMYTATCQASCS
The target of test [2] is T1, human GLP-1R (Homo sapiens, UniProt P43220). The experiment in a line: GLP-1R CHO cell β-arrestin recruitment assay. The class given is cell-based. Details: host or cells: CHO-K1 PathHunter cells, assay-ready frozen. The following applies: for EC50: CHO-K1 cells, PathHunter β-arrestin-2 recruitment, 0.1% casein, read-out: hGLP1R B-Arrestin2 Rel EC50 uM (SEM, n); for hGLP1R B-Arrestin2 % Top: normalized to GLP-1 maximum control. The method, boiled down: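 Peptide-induced β-arrestin-2 recruitment measured by enzyme-fragment complementation luminescence after 90 min at 37 °C plus 60 min detection at RT.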
T1 sequence (P43220 24-463): as above

Test [3] deals with T1, human GLP-1R. The experiment in a line: [125I]-GLP-1 binding (SPA), human GLP-1 receptor. Details: expressed in transfected cells; crude membranes. The following applies: read-out: hGLP1R Ki, (nM) (SEM, n). The method, boiled down:
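Frozen cell pellets are lysed on ice in hypotonic Tris buffer, pH 7.5, homogenized, and centrifuged to a membrane pellet resuspended at about 1 to 3 mg/mL. Binding is then measured in HEPES-based buffer at pH 7.4, and curves are fitted to give IC50 and Ki.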

Test [4] concerns the target T2, gastric inhibitory peptide receptor (GIPR) (Homo sapiens, UniProt P48546).
T2 sequence (P48546 22-466): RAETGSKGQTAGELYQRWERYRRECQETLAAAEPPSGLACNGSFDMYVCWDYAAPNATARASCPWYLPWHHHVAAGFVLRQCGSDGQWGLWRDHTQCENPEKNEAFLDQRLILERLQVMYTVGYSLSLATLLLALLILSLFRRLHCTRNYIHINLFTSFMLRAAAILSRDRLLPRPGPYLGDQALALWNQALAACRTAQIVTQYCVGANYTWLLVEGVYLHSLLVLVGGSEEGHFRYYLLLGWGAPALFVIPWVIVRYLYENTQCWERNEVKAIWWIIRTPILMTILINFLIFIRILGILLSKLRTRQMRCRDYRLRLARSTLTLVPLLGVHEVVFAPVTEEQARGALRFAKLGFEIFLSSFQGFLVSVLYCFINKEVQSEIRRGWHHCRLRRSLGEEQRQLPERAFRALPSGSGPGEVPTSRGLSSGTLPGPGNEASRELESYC
The test can be described thus: cAMP pharmacological functional assay in presence of casein, hGIPR. Format: cell-based. The note with it: HEK293 cells expressing hGIPR, 0.1% Casein, geometric mean; read-out: hGIPR cAMP Rel EC50 nM (SEM, n).

In test [5] the target is T1, human GLP-1R. The experiment in a line: GLP-1R HEK293 cell membrane [35S]GTPγS binding assay. The class given is biochemical. Further details: expressed in transfected cells; host or cells: HEK293 cells expressing human GLP-1R; membranes. The following applies: HEK293 cell membranes expressing human GLP-1R, [35S]GTPγS binding; read-out: hGLP1R GTPgS Rel EC50 nM (SEM, n). The method, boiled down:
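Agonist-driven Gαs activation read as [35S]GTPγS ([…]) binding to receptor-expressing HEK293 membranes, 30 min at room temperature, pH 7.4. Detection by anti-Gαs immunocapture on scintillation beads; EC50 derived from four-parameter logistic concentration-response fit.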
A general note: GTPγS resists hydrolysis and so accumulates on activated G proteins.

The next test deals with T3, human Gcg receptor (Homo sapiens, UniProt P47871).
T3 construct: expressed in transfected cells; crude membranes
T3 sequence (P47871 26-477): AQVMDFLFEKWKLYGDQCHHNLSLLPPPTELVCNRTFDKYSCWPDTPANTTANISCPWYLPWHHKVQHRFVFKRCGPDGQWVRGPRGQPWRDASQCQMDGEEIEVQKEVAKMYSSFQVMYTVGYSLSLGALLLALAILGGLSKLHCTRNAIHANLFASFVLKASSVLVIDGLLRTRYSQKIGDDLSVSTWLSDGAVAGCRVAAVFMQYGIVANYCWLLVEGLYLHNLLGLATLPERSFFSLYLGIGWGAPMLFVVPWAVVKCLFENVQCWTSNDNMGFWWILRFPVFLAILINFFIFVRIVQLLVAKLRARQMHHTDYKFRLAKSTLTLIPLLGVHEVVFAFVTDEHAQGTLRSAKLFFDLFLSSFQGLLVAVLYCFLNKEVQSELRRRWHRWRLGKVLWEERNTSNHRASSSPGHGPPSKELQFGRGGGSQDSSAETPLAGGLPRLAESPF
The experiment in a line: [125I]-Glucagon binding (SPA), human Gcg receptor. The following applies: read-out: hGLcgR Ki, nM (SEM, n). The method, boiled down: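 Scintillation counts are taken after membranes and WGA beads incubate and settle for 12 hours at room temperature. Buffer is 25 mM HEPES, pH 7.4, with CaCl2, MgCl2, bacitracin and Tween-20. Ki values, from four-parameter IC50 fits, are geometric means over independent days.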

The next test concerns the target T4, human GIP receptor (Homo sapiens, UniProt P48546).
T4 construct: expressed in transfected cells; crude membranes
T4 sequence (P48546 22-466): T2 sequence (P48546 22-466)
The experiment in a line: [125I]-GIP binding (SPA), human GIP receptor. The note with it: read-out: hGIPR Ki, nM (SEM, n).

As for `CC[C@H](C)[C@H](NC(=O)[C@H](CC(C)C)NC(=O)[C@H](Cc1ccc(O)cc1)NC(=O)[C@H](CCC(=O)O)NC(=O)[C@@H](NC(=O)[C@H](Cc1ccccc1)NC(=O)[C@H](C)NC(=O)C(C)(C)NC(=O)[C@H](CCC(N)=O)NC(=O)[C@H](C)NC(=O)[C@H](CCCCNC(=O)COCCOCCNC(=O)COCCOCCNC(=O)CC[C@H](NC(=O)CCCCCCCCCCCCCCCCC(=O)O)C(=O)O)NC(=O)[C@H](CCCCN)NC(=O)[C@H](CC(=O)O)NC(=O)[C@H](CC(C)C)NC(=O)[C@H](CC(C)C)NC(=O)[C@@H](NC(=O)[C@H](CO)NC(=O)[C@H](Cc1ccc(O)cc1)NC(=O)[C@H](CC(=O)O)NC(=O)[C@H](CO)NC(=O)[C@@H](NC(=O)[C@H](Cc1ccccc1)NC(=O)[C@@H](NC(=O)CNC(=O)[C@H](CCC(=O)O)NC(=O)C(C)(C)NC(=O)[C@@H](N)Cc1ccc(O)cc1)[C@@H](C)O)[C@@H](C)O)[C@@H](C)CC)[C@@H](C)CC)C(=O)N[C@@H](CCC(=O)O)C(=O)NCC(=O)NCC(=O)N1CCC[C@H]1C(=O)N[C@@H](CO)C(=O)N[C@@H](CO)C(=O)NCC(=O)N[C@@H](C)C(=O)N1CCC[C@H]1C(=O)N1CCC[C@H]1C(=O)N1CCC[C@H]1C(=O)N[C@@H](CO)C(N)=O` [Example 315], the concentration for a half-maximal effect (EC50) in test [1] came out at 0.0651 nM; at human GLP-1R [2], 0.0199 µM; in test [4], 0.0408 nM; on human GLP-1R [5] it was 0.601 nM. Besides, the “hGLP1R B-Arrestin2 % Top” value at human GLP-1R [2] is listed as 25.4%. The Ki on human GLP-1R [3] worked out at 2.28 nM; on human Gcg receptor, 539 nM; at human GIP receptor, 0.0677 nM.

Consider `CC[C@H](C)[C@H](NC(=O)[C@H](CC(C)C)NC(=O)[C@H](Cc1ccc(O)cc1)NC(=O)[C@H](CCC(=O)O)NC(=O)[C@@H](NC(=O)[C@H](Cc1ccccc1)NC(=O)[C@H](CC(=O)O)NC(=O)C(C)(C)NC(=O)[C@H](CCC(N)=O)NC(=O)[C@H](C)NC(=O)[C@H](CCCCNC(=O)COCCOCCNC(=O)COCCOCCNC(=O)CC[C@H](NC(=O)CCCCCCCCCCCCCCCCCCC(=O)O)C(=O)O)NC(=O)[C@H](CCC(=O)O)NC(=O)[C@H](CC(=O)O)NC(=O)[C@H](CC(C)C)NC(=O)[C@](C)(CC(C)C)NC(=O)[C@@H](NC(=O)[C@H](CO)NC(=O)[C@H](Cc1ccc(O)cc1)NC(=O)[C@H](CC(=O)O)NC(=O)[C@H](CO)NC(=O)[C@@H](NC(=O)[C@H](Cc1ccccc1)NC(=O)[C@@H](NC(=O)CNC(=O)[C@H](CCC(=O)O)NC(=O)C(C)(C)NC(=O)[C@@H](N)Cc1ccc(O)cc1)[C@@H](C)O)[C@@H](C)O)[C@@H](C)CC)[C@@H](C)CC)C(=O)N[C@@H](C)C(=O)NCC(=O)NCC(=O)N1CCC[C@H]1C(=O)N[C@@H](CO)C(=O)N[C@@H](CO)C(=O)NCC(=O)N[C@@H](C)C(=O)N1CCC[C@H]1C(=O)N1CCC[C@H]1C(=O)N1CCC[C@H]1C(=O)N[C@@H](CO)C(N)=O` [Example 344] (H-Y[Aib]EGTFTSDYSI[αMeL]LDEK([AEEA-AEEA-γGlu-C20 diacid])AQ[Aib]DFIEYLIAGGPSSGAPPPS-NH2), for which the EC50 is 0.044 nM in test [1], 0.0343 µM on human GLP-1R [2], 0.0433 nM in test [4] and 0.423 nM at human GLP-1R [5]. In addition, on human GLP-1R [2], the “hGLP1R B-Arrestin2 % Top” value is recorded as 46%. The Ki on human GLP-1R [3] was 14.8 nM; on human Gcg receptor, above 1080 nM; on human GIP receptor, 0.0507 nM.

With `CC[C@H](C)[C@H](NC(=O)[C@H](CC(C)C)NC(=O)[C@H](Cc1ccc(O)cc1)NC(=O)[C@H](CCC(=O)O)NC(=O)[C@@H](NC(=O)[C@H](Cc1ccccc1)NC(=O)[C@H](CCC(=O)O)NC(=O)C(C)(C)NC(=O)[C@H](CCC(N)=O)NC(=O)[C@H](C)NC(=O)[C@H](CCCCNC(=O)COCCOCCNC(=O)COCCOCCNC(=O)CC[C@H](NC(=O)CCCCCCCCCCCCCCCCCCC(=O)O)C(=O)O)NC(=O)[C@H](CCCN)NC(=O)[C@H](CC(=O)O)NC(=O)[C@H](CC(C)C)NC(=O)[C@](C)(CC(C)C)NC(=O)[C@@H](NC(=O)[C@H](CO)NC(=O)[C@H](Cc1ccc(O)cc1)NC(=O)[C@H](CC(=O)O)NC(=O)[C@H](CO)NC(=O)[C@@H](NC(=O)[C@H](Cc1ccccc1)NC(=O)[C@@H](NC(=O)CNC(=O)[C@H](CCC(=O)O)NC(=O)C(C)(C)NC(=O)[C@H](N)Cc1ccc(O)cc1)[C@@H](C)O)[C@@H](C)O)[C@@H](C)CC)C(C)C)C(=O)N[C@@H](C)C(=O)NCC(=O)NCC(=O)N1CCC[C@H]1C(=O)N[C@@H](CO)C(=O)N[C@@H](CO)C(=O)NCC(=O)N[C@@H](C)C(=O)N1CCC[C@H]1C(=O)N1CCC[C@H]1C(=O)N1CCC[C@H]1C(=O)N[C@@H](CO)C(N)=O` [Example 359] (H-[dY][Aib]EGTFTSDYSI[αMeL]LD[Orn]K([AEEA-AEEA-γGlu-C20 diacid])AQ[Aib]EFVEYLIAGGPSSGAPPPS-NH2), the EC50 in test [1] worked out at 0.131 nM; at human GLP-1R [2], 0.0841 µM; in test [4] it was 0.172 nM; on human GLP-1R [5], 0.496 nM. For the same molecule, the “hGLP1R B-Arrestin2 % Top” value on human GLP-1R [2] is given as 28.4%. In addition, the figures for the Ki at human GLP-1R [3], on human Gcg receptor and on human GIP receptor were 2.59 nM, above 982 nM and 0.0874 nM, respectively.

With `CC[C@H](C)[C@H](NC(=O)[C@H](CC(C)C)NC(=O)[C@](C)(Cc1ccc(O)cc1)NC(=O)[C@H](CCC(=O)O)NC(=O)[C@@H](NC(=O)[C@H](Cc1ccccc1)NC(=O)[C@H](CCC(=O)O)NC(=O)C(C)(C)NC(=O)[C@H](CCC(N)=O)NC(=O)[C@H](C)NC(=O)[C@H](CCCCNC(=O)COCCOCCNC(=O)COCCOCCNC(=O)CC[C@H](NC(=O)CCCCCCCCCCCCCCCCCCC(=O)O)C(=O)O)NC(=O)[C@H](CCCCN)NC(=O)[C@H](CC(=O)O)NC(=O)[C@H](CC(C)C)NC(=O)[C@](C)(CC(C)C)NC(=O)[C@@H](NC(=O)[C@H](CO)NC(=O)[C@H](Cc1ccc(O)cc1)NC(=O)[C@H](CC(=O)O)NC(=O)[C@H](CO)NC(=O)[C@@H](NC(=O)[C@H](Cc1ccccc1)NC(=O)[C@@H](NC(=O)CNC(=O)[C@H](CCC(=O)O)NC(=O)C(C)(C)NC(=O)[C@@H](N)Cc1ccc(O)cc1)[C@@H](C)O)[C@@H](C)O)[C@@H](C)CC)[C@@H](C)CC)C(=O)N[C@@H](C)C(=O)NCC(=O)NCC(=O)N1CCC[C@H]1C(=O)N[C@@H](CO)C(=O)N[C@@H](CO)C(=O)NCC(=O)N[C@@H](C)C(=O)N1CCC[C@H]1C(=O)N1CCC[C@H]1C(=O)N1CCC[C@H]1C(=O)N[C@@H](CO)C(N)=O` [Example 367] (H-Y[Aib]EGTFTSDYSI[αMeL]LDKK([AEEA-AEEA-γGlu-C20 diacid])AQ[Aib]EFIE[αMeY]LIAGGPSSGAPPPS-NH2), the EC50 is 0.0641 nM in test [1], 0.00666 µM on human GLP-1R [2], 0.0179 nM in test [4] and 0.289 nM at human GLP-1R [5]. The “hGLP1R B-Arrestin2 % Top” value on human GLP-1R [2] is given as 70.6%. Moreover, the inhibitory constant (Ki) stood at 0.809 nM on human GLP-1R [3], 777 nM on human Gcg receptor and 0.0282 nM on human GIP receptor.

By EC50 is commonly meant the concentration giving half of the maximal effect. For orientation: Ki means a dissociation constant, usually derived from enzyme kinetics or from competition with a known ligand.
